The text below walks through data of PMC7385619, “A triple action CDK4/6-PI3K-BET inhibitor with augmented cancer cell cytotoxicity” (Cell Discovery, 2020).

Test [1] relates to BRD4 binding to the MYC TSS in Huh7 and Jeko-1 cells. Nature of the test: Chromatin immunoprecipitation of BRD4 at the MYC transcriptional start site. It is filed as cell-based, human. The protocol: assay for comparison relative to the no-drug control and to the time zero number of cells for assessment of growth inhibition (values between 0 and 100) and lethality (values less than 0), […]
Hepatocellular carcinoma cells (Hep3B, HepG2, and Huh7), neuroblastoma cells (CHLA-255, CHLA-136, and SMS-KNCR), mantle cell lymphoma (Granta-519, Mino, and Jeko-1), or normal tonsillar epithelial cells (RRP008) were seeded in complete medium in 96-well tissue culture plates at 2.5 x 10^3 to 1 x 10^4 cells per well, respectively. Cells were incubated overnight to allow for attachment of adherent cells. […]
or 100 µM in triplicate the following day. Cells were incubated for 48 hours at 37 °C then treated with either CCK8 reagent (Dojindo Molecular Technologies, Rockville, MD) or Alamar Blue (ThermoFisher Scientific) and incubated for 3-6 hours at 37 °C. For CCK8, absorbance was measured at 450 nm; for Alamar Blue, fluorescence signals were read as emission at 590 nm after excitation at 560 nm. Averaged values were normalized as a percentage of control and plotted and regressed for dose response using GraphPad Prism (GraphPad Software, Inc., La […]
Chromatin immunoprecipitation
Chromatin immunoprecipitation assays using antibodies against BRD4 and an isotype control and primers designed to the MYC transcriptional site and a non-regulated upstream locus were performed as previously described8. […]

The next test addresses CDK4 (Homo sapiens, UniProt P11802). Nature of the test: In vitro kinase assay, CDK4. It is filed as biochemical. The conditions noted are these: Fig. 1b; italicized values from the literature (italics not visible).
Another test concerns the target T1, BRD3 (BD2) (Homo sapiens, UniProt Q15059).
T1 construct: tagged bromodomains and acetylated histone peptides as; purchased Reaction Biology
Nature of the test: AlphaScreen bromodomain binding assay, BRD3 BD2. As to conditions: Fig. 1b; italicized values from the literature (italics not visible). (In general: In Alpha technology, singlet oxygen from a donor bead excites a nearby acceptor bead.)

The next test has as its target T2, PI3Kγ (Homo sapiens, UniProt P48736).
T2 construct: purchased ThermoFisher Scientific
Briefly: In vitro kinase assay, PI3Kγ. Type of test: biochemical. As to conditions: Fig. 1b; italicized values from the literature (italics not visible).

In the next test the target is T3, CDK6 (Homo sapiens, UniProt Q00534).
T3 construct: purchased Reaction Biology
T3 sequence (Q00534 whole entry): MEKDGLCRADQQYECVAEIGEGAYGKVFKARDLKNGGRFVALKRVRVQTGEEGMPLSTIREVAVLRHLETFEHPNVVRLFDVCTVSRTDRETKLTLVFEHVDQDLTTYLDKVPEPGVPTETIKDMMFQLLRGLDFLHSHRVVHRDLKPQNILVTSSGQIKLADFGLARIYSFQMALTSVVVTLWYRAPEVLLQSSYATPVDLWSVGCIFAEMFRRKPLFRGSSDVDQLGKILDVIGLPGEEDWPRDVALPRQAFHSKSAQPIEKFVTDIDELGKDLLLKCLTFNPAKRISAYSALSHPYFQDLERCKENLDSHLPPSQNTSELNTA
T3 sequence (P24385 whole entry partner): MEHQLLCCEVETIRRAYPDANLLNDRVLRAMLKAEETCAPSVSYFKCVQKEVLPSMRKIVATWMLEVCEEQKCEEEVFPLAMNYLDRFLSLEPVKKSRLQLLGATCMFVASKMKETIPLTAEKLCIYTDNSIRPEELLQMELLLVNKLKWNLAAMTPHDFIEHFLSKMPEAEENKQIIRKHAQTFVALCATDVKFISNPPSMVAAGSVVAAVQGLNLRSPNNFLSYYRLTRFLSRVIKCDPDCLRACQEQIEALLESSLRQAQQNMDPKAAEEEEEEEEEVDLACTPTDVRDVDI
Briefly: In vitro kinase assay, CDK6. It is filed as biochemical. As to conditions: Fig. 1b; italicized values from the literature (italics not visible).

Some results are limits rather than exact numbers.

Chain of CDK4 (P11802 whole entry): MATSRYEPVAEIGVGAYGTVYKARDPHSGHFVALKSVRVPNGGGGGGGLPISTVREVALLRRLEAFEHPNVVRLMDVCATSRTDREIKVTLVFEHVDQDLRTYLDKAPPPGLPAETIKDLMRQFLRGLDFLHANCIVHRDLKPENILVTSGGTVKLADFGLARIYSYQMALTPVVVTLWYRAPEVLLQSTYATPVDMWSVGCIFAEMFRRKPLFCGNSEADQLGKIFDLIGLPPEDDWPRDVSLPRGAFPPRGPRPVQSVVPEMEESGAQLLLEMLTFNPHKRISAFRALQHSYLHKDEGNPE
Chain of CDK4 (P24385 whole entry partner): as the sequence (P24385 whole entry partner) above
T2 sequence (P48736 whole entry): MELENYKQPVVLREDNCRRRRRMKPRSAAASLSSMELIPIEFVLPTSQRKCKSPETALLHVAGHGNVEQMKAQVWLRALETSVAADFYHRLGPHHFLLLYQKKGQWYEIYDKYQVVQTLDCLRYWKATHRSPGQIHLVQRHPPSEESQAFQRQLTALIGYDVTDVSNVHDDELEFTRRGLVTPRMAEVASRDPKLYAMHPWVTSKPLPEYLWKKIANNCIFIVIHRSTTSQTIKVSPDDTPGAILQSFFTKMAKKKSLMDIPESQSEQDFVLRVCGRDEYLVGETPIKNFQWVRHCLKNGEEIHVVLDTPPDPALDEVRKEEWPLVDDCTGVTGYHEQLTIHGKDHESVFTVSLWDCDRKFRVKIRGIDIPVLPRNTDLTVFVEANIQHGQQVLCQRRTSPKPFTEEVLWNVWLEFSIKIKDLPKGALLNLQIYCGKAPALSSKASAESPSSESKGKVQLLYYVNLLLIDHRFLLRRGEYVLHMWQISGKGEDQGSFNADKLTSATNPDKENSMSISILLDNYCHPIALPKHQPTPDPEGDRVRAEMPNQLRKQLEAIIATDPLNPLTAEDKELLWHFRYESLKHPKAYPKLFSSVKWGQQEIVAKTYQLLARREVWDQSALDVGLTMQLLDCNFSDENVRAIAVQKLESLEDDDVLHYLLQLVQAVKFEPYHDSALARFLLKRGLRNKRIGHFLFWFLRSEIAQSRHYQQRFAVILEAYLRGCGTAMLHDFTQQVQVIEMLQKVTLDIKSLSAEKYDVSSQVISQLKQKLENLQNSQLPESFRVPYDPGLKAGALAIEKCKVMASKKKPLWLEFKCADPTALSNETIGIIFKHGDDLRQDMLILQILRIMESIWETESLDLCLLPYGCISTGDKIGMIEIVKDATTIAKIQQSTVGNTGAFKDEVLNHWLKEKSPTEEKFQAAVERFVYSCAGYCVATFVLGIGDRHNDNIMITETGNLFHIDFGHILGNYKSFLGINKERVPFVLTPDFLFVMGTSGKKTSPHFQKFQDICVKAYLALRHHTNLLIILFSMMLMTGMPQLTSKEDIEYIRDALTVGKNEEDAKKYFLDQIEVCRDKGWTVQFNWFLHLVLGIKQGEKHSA
T1 sequence (Q15059 306-415 limits assumed): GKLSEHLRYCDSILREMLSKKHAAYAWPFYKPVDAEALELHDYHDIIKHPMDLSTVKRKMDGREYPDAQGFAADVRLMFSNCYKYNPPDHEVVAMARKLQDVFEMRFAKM

Take `CN(C)C(=O)c1cc2cnc(Nc3ccc(-c4csc5c(=O)cc(N6CCOCC6)oc45)cc3)nc2n1C1CCCC1` [SRX3177]: the “occupancy of BRD4 at the transcriptional start site (TSS) of MYC by ChIP” value in test [1] is on record as “abrogated binding of BRD4 to the MYC TSS”. Further, the IC50 (usually the concentration at which inhibition is half-maximal) at CDK4 is less than 2.5 nM; at BRD3 (BD2) it was 226 nM; at PI3Kγ, 3180 nM; on CDK6 it was 3.3 nM.
